Drawing on US8871755B2, “Alkene azetidine derivatives as sphingosine 1-phosphate (S1P) receptor modulators” (Allergan, Inc., priority 2013, dated 2014), this text covers EC50 for six compounds.

pEC50: −log10 of the molar value.

This test has as its target T1, human S1P1 receptor (Homo sapiens, UniProt P21453).
T1 construct: expressed in transfected cells; membranes were used
The experiment in a line: GTP γ35S binding assay for S1P1 activity. In kind it is biochemical. The following applies: activity potency from GTP γ35S binding; membranes of cells stably expressing the S1P1 receptor; 30 min at 25° C. As to the method:
Compounds were synthesized and tested for S1P1 activity using the GTP γ^35S binding assay. These compounds may be assessed for their ability to activate or block activation of the human S1P1 receptor in cells stably expressing the S1P1 receptor. […] binding was measured in the medium containing (mM) HEPES 25, pH 7.4, MgCl2 10, NaCl 100, dithitothreitol 0.5, digitonin 0.003%, 0.2 nM GTP γ^35S, and 5 μg membrane protein in a volume of 150 μl. Test compounds were included in the concentration range from 0.08 to 5,000 nM unless indicated otherwise. Membranes were incubated with 100 μM 5′-adenylylimmidodiphosphate for 30 min, and subsequently with 10 μM GDP for 10 min on ice. Drug solutions and membrane were mixed, and then reactions were initiated by adding GTP γ^35S and continued for 30 min at 25° C. Reaction mixtures were filtered over Whatman GF/B filters under vacuum, and washed three times with 3 mL of ice-cold buffer (HEPES 25, pH7.4, MgCl2 10 and NaCl 100). Filters were dried and mixed with scintillant, and counted for ^35S activity using a […]. Agonist-induced GTP γ^35S binding was obtained by subtracting that in the absence of agonist. Binding data were analyzed using a non-linear regression method. In case of antagonist assay, the reaction mixture contained 10 nM S1P in the presence of test antagonist at concentrations ranging from 0.08 to 5000 nM.
Background: GTPγS is a poorly hydrolysed GTP analogue; its binding reports G protein activation.

T1 sequence (P21453 whole entry): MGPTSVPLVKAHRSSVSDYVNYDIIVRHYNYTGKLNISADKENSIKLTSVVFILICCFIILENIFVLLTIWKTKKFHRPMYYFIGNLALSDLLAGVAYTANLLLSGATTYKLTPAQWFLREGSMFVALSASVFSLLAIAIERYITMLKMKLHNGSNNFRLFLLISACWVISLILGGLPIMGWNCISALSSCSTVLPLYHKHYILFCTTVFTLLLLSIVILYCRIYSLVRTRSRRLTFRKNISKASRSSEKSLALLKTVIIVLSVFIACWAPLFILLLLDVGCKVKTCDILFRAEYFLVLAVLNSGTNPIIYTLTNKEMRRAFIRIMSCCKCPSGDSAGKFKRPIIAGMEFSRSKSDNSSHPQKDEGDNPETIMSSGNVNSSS

For orientation: pEC50 means −log10 of the EC50, conventionally taken in molar units. Read a low pEC50 as a large EC50. For the compound `Cc1ccc(C=C(CCCOc2ccc(CN3CC(C(=O)O)C3)cc2)c2ccsc2)cc1C` [1-(4-{[5-(3,4-dimethylphenyl)-4-(3-thienyl)pent-4-en-1-yl]oxy}benzyl)azetidine-3-carboxylic acid], the pEC50 is 7.44.
Next, `Cc1ccc(/C=C(\CCCOc2ccc(CN3CC(C(=O)O)C3)cc2)c2cccc(F)c2F)cc1C` [Compound 1, 1-(4-{[(4E)-4-(2,3-Difluorophenyl)-5-(3,4-dimethylphenyl)pent-4-en-1-yl]oxy}benzyl)azetidine-3-carboxylic acid]: 6.32; `Cc1ccc(/C=C(\CCCCSc2ccc(CN3CC(C(=O)O)C3)cc2)c2cc(F)cc(F)c2)cc1C` [Compound 4, 1-(4-{[(5E)-5-(3,5-difluorophenyl)-6-(3,4-dimethylphenyl)hex-5-en-1-yl]sulfanyl}benzyl)azetidine-3-carboxylic acid]: 6.19.
For `Cc1ccc(/C=C(\CCCOc2ccc(CN3CC(C(=O)O)C3)cc2)c2cccc(Cl)c2)cc1C` [Compound 5, 1-(4-{[(4E)-4-(3-Chlorophenyl)-5-(3,4-dimethylphenyl)pent-4-en-1-yl]oxy}benzyl)azetidine-3-carboxylic acid] the value was 7.55.
Consider `Cc1ccc(/C=C(\CCCOc2ccc(CN3CC(C(=O)O)C3)cc2)c2cc(F)cc(F)c2)cc1C` [Compound 6, 1-(4-{[(4E)-4-(3,5-Difluorophenyl)-5-(3,4-dimethylphenyl)pent-4-en-1-yl]oxy}benzyl)azetidine-3-carboxylic acid], for which the pEC50 is 8.38.
Next, `Cc1ccc(/C=C(\CCC[S+]([O-])c2ccc(CN3CC(C(=O)O)C3)cc2)c2cc(F)cc(F)c2)cc1C` (stereo not drawn) [Compound 7]: 6.80.
